Results: patent US20110160265A1, “METHOD OF TREATING MOTOR DISORDERS WITH ALPHA-2B ADRENERGIC RECEPTOR AGONISTS” (priority 2007, published 2011)

Assays:
[1] = system: mice; test: Amphetamine-induced hyperlocomotion (open field); assay type: in vivo; conditions: drug 2 amphetamine SC
Description: Table 2, below, indicates the locomotor responses of mice treated with various combinations of alpha-2B receptor agonists and the psychostimulant amphetamine. Drug 1 was administered 30 minutes after the animal was placed in the open field. Drug 2 was administered subcutaneously (SC) at 45 minutes after the animal was placed in the open field (15 minutes after drug 1). AUC indicates the total amount of locomotor activity after administration of drug 2. “% decrease activity” indicates the percentage decrease in total activity relative to the Vehicle+Amphetamine group. ° indicates significant difference (P<0.05) relative to Vehicle+Amphetamine treated animals. * indicates significant difference (P<0.05) relative to Vehicle+Vehicle treated animals.
(§1) Amphetamine- or cocaine-induced hyperactivity. Mice were placed in an open field apparatus (FlexField, San Diego Instruments, San Diego, Calif.). After 30 minutes of habituation, they received a vehicle or haloperidol injection or injection of alpha-2B receptor agonist followed by an injection of amphetamine (2 mg/kg, s.c.) or cocaine (10 mg/kg, i.p.) at minute 45. Their activity levels were subsequently measured for another 1 hour post-injection. Total activity over each 5 minute bin (21 total bins) was added to establish activity curve over the 105 minute testing.
(§2) For i.p. administration, the compounds are formulated in H2O with 0.5% DMSO and given in a volume of 1 ml/kg body weight by injecting into the intraperitoneal cavity. For p.o. administration, the compounds are formulated in H2O with 0.5% DMSO and given in a volume of 2 ml/kg body weight using a 25-gauge, 1.5 inch gavage needle that is slowly inserted through the esophagus into the stomach.

[2] = system: mice; test: Cocaine-induced hyperlocomotion (open field); assay type: in vivo; conditions: drug 2 cocaine SC; for % DECREASE ACTIVITY: relative to Vehicle+Cocaine
Description: Table 3, below, indicates the locomotor responses of mice treated with various combinations of alpha-2B receptor agonists and the psychostimulant cocaine. Drug 1 was administered 30 minutes after the animal was placed in the open field. Drug 2 was administered subcutaneously (SC) at 45 minutes after the animal was placed in the open field (15 minutes after drug 1). AUC indicates the total amount of locomotor activity after administration of drug 2. “% decrease activity” indicates the percentage decrease in total activity relative to the Vehicle+Cocaine group. ° indicates significant difference (P<0.05) relative to Vehicle+Cocaine treated animals. * indicates significant difference (P<0.05) relative to Vehicle+Vehicle treated animals.
as §1, §2

[3] = system: nigrostriatal-lesioned rats; test: Nigrostriatal-lesion-induced rotational behavior following amphetamine administration; assay type: in vivo; conditions: relative to Vehicle+Amphetamine, drug 1 0.03 mg/kg PO, drug 2 amphetamine SC
Description: Table 4, below, indicates the changes in rotational behavior in nigrostriatal-lesioned rats treated with various alpha-2B receptor agonists and the psychostimulant amphetamine. Drug 1 was administered 15 minutes before amphetamine, and 10 minutes post-amphetamine, the animals were placed into the rotometer for 30 or 60 minutes. “% decrease rotations” indicates the percentage decrease in total rotations relative to the Vehicle+Amphetamine group. ^⋄ indicates significant difference (P<0.05) relative to Vehicle+Amphetamine treated animals. * indicates significant difference (P<0.05) relative to Vehicle+Vehicle treated animals.
Amphetamine-induced rotational behavior. Pre-Apomorphine-screened (rotated) rats (with lesions ≧95% DA cell loss) were purchased from Charles Rivers Laboratories. Animals were given ˜4 days to acclimate prior to testing. All animals weighted 250-300 g at the beginning of the study. Animals were treated with various combinations of vehicle or alpha-2B receptor agonist and amphetamine.
Vehicle or alpha-2B receptor agonist was administered (p.o.) 15 minutes before amphetamine (2 mg/kg s.c.). Rotational behavior was assessed 15 minutes post-amphetamine administration and was monitored for 60 minutes using a Rotometer system from San Diego Instruments (San Diego, Calif.).
as §2

[4] = target: T1, alpha-2A receptor (Homo sapiens, UniProt P08913); test: Alpha-2A receptor activity (efficacy relative to brimonidine); assay type: cell-based; conditions: in words; b7: lacks significant activity = less than 40% of the efficacy of brimonidine at alpha-2A
T1 sequence (P08913 1-465): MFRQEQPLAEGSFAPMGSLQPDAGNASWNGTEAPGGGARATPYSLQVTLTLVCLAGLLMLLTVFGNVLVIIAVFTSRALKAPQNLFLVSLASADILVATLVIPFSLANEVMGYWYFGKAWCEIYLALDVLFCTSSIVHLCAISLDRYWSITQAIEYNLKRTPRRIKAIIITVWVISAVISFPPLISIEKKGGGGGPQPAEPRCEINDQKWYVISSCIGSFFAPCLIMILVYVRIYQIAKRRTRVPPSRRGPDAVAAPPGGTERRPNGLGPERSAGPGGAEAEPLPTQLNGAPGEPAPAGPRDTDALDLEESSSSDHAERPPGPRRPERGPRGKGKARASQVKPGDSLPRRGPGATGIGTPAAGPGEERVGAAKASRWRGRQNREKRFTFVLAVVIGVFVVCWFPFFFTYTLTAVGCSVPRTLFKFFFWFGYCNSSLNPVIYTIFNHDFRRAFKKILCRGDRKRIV
Description: The methods of the present invention use alpha-2 agonists lacking significant activity at the alpha-2A receptor subtype. An agonist lacks significant alpha-2A receptor activity if the agonist has less than 40% of the efficacy of brimonidine at the alpha-2A receptor subtype. Compounds of the invention include, therefore, alpha-2B receptor agonists lacking significant alpha-2A activity; alpha 2B/2C receptor agonists lacking significant alpha-2A activity; and alpha-2C receptor agonists lacking significant alpha-2A activity.
Efficacy, also known as intrinsic activity, is a measure of maximal receptor activation achieved by a compound and can be determined using any accepted assay of alpha-adrenergic receptor activation, such as a cAMP or Receptor Selection and Amplification Technology (RSAT). Efficacy is represented as a ratio or percentage of the maximal effect of the drug to the maximal effect of a standard agonist for each receptor subtype. Brimonidine, itself an alpha-2B receptor agonist (it is has 100% the efficacy of brimonidine at the alpha-2B adrenergic receptor), is used as the standard agonist for the alpha-2B adrenergic receptors.
Agonist activity can be characterized using any of a variety of routine assays, including, for example, Receptor Selection and Amplification Technology (RSAT) assays (Messier et al., Pharmacol. Toxicol. 76:308-11 (1995); cyclic AMP assays (Shimizu et al., J. Neurochem. 16:1609-1619 (1969)); and cytosensor microphysiometry assays (Neve et al., J. Biol. Chem. 267:25748-25753 (1992)). Such assays generally are performed using cells that naturally express only a single alpha-adrenergic receptor subtype, or using transfected cells expressing a single recombinant alpha-adrenergic receptor subtype. The adrenergic receptor can be a human receptor or homolog of a human receptor having a similar pharmacology.
The RSAT assay measures receptor-mediated loss of contact inhibition resulting in selective proliferation of receptor-containing cells in a mixed population of confluent cells. The increase in cell number is assessed with an appropriate detectable marker gene such as beta-galactosidase, if desired, in a high throughput or ultra high throughput assay format. Receptors that activate the G protein, Gq, elicit the proliferative response. Alpha-adrenergic receptors, which normally couple to Gi, activate the RSAT response when coexpressed with a hybrid Gq protein containing a Gi receptor recognition domain, designated Gq/i5. Conklin et al., Nature 363:274-6 (1993)).
As an example, an RSAT assay can be performed essentially as follows. NIH-3T3 cells are plated at a density of 2×10^6 cells in 15 cm dishes and maintained in Dulbecco's modified Eagle's medium supplemented with 10% calf serum. One day later, cells are cotransfected by calcium phosphate precipitation with mammalian expression plasmids encoding p-SV-β-galactosidase (5-10 μg), receptor (1-2 μg) and G protein (1-2 μg). Carrier DNA, for example 40 μg salmon sperm DNA, also can be included to increase transfection efficiency. Fresh media is added on the following day; one to two days later, cells are harvested and frozen in 50 assay aliquots. Transfected cells are thawed, and 100 μl of cells added to 100 μl aliquots of compound to be tested, with various concentrations assayed in triplicate, for example, in 96-well plates. Incubation continues for 72 to 96 hours at 37° C. After washing with phosphate-buffered saline, β-galactosidase activity is determined by adding 200 μl of chromogenic substrate (3.5 mM O-nitrophenyl-β-D-galactopyranoside/0.5% NP-40 in phosphate buffered saline), incubating overnight at 30° C., and measuring optical density at 420 nm. The absorbancy is a measure of enzyme activity, which depends on cell number and reflects receptor-mediated cell proliferation. The EC50 and maximal effect (i.e., efficacy) of each drug at each receptor is determined.

Row | Compound | % DECREASE ACTIVITY REL TO VEH + AMPH ([1]; drug 1 0.03 mg/kg IP) | TOTAL ACTIVITY POST-AMPHETAMINE (AUC) ([1]; drug 1 0.03 mg/kg IP) | TOTAL ACTIVITY POST-COCAINE (AUC) ([2]; drug 1 0.03 mg/kg PO) | TOTAL ACTIVITY POST-COCAINE (AUC) ([2]; drug 1 0.1 mg/kg PO) | TOTAL ACTIVITY POST-COCAINE (AUC) ([2]; drug 1 0.3 mg/kg PO) | % DECREASE ACTIVITY ([2]; drug 1 0.03 mg/kg PO) | % DECREASE ACTIVITY ([2]; drug 1 0.1 mg/kg PO) | % DECREASE ACTIVITY ([2]; drug 1 0.3 mg/kg PO) | % DECREASE ROTATIONS [3] | alpha-2A receptor activity [4] | % DECREASE ACTIVITY REL TO VEH + AMPH ([1]; drug 1 1 mg/kg IP) | TOTAL ACTIVITY POST-AMPHETAMINE (AUC) ([1]; drug 1 1 mg/kg IP)
1 | OCCNC(=S)NCc1cccc(Cl)c1F [Compound A] | 55% ^⋄ | 5524.8 ± 624.2 | 8469 ± 935.01 | 6457.67 ± 754.0 | 3543 ± 648.02 | 19% * ^ | 38% ^⋄ * | 66% ^⋄ | 65% ^⋄ * | lack significant alpha-2A receptor activity | – | –
2 | c1ccc2c(c1)CC[C@@H](Cc1c[nH]cn1)C2 [Compound B] | 68% ^⋄ | 3940.5 ± 573.7 | – | – | – | – | – | – | 29% * ^ | lack significant alpha-2A receptor activity | 64% ^⋄ | 4462.0 ± 957.5
3 | Clc1cccc(C(c2ccccc2)c2c[nH]cn2)c1Cl (stereo not shown) [Compound C] | 52% ^⋄ | 6348.0 ± 423.4 | – | – | – | – | – | – | – | lack significant alpha-2A receptor activity | – | –
